Laboratory results: patent publication EP0652769B1, “VACCINES AGAINST METAZOAN PARASITES” (MALLINCKRODT VETERINARY, INC., priority 1992, dated 1994)
Where “and” joins values, the source holds several entries; their conditions need not be identical. Equal values may be shown once. Square brackets hold non-standard residues; d marks the D form. Peptide text beside a SMILES is read from it. * marks the point of attachment. Sta = CC(C)C[C@H](N)[C@@H](O)CC(=O)O; Isovaleryl = CC(C)CC(=O)*

Assays:
Oc-gal-GP = assay: Inhibitor sensitivity of protease activity; format: biochemical, O.circumcincta; settings: means of 2 observations
H-gal-GP [1] = assay: Inhibitor sensitivity of protease activity; format: biochemical, H. contortus; settings: peanut lectin purified H-gal-GP; means of 4 separate observations
Protocol: The optimum pH for this activity was determined over the pH range 4 to 9 using overlapping 0.1M acetate, phosphate or Tris buffers (Fig. 8). Optimal activity was found between pH 4.5 and 6.5. ii) Inhibitor sensitivity The inhibitor sensitivity of the proteinase activity was tested with 4 separate preparations of peanut lectin purified H-gal-GP. […]

Oo-gal-GP = assay: Inhibitor sensitivity of protease activity; format: biochemical, O.ostertagi; settings: means of 2 observations
H-gal-GP [2] = assay: Azocasein proteolysis by H-gal-GP at pH 7 with a panel of proteinase inhibitors (neutral endopeptidase-like activity); format: biochemical, H.contortus; settings: inhibitor 1mM, overnight at 37°C
Protocol: Proteinase activity was determined using azocasein as substrate in a microassay system. H-gal-GP (approximately 5ug in 20µl) was preincubated for 3Omin at 37°C with 2OOµl sterile 0.1M phosphate buffer, pH 7.0 containing no inhibitor (control), or inhibitor to a final concentration of 1mM. Inhibitors used were prepared as 100mM stock solutions in water except for 4-hydroxymercuribenzoate (4HMB) and pepstatin which were dissolved in methanol. Inhibitors tested were dithiothreitol (DTT); L-cysteine; reduced glutathione; 4HMB; N-ethylmaleimide; EDTA; 1,10 phenanthroline and pepstatin and were all purchased from Sigma. After preincubation 20µl azocasein (5mg/ml in sterile distilled water; Sigma) was added and the reaction mixtures incubated overnight at 37°C. Parallel blanks containing sterile water instead of H-gal-GP were included for each inhibitor tested and assays were performed in duplicate. The reactions were stopped by addition of an equal volume of 1M perchloric acid (BDH chemicals) and retained on ice for 15min to precipitate undigested protein which was subsequently pelleted by brief centrifugation at 11000g using a microfuge. The 0D₄₀₅ of the supernatant was determined using a "Monarch" microcentrifugal analyser (Instrumentation Laboratory, Warrington, UK). After subtraction of the appropriate reagent blank the degree of inhibition was expressed as the percent activity remaining compared to the control reaction.

[3] = biological target: Ostertagia ostertagi galactose-containing glycoprotein complex (Oo-gal-GP) (Ostertagia ostertagi); assay: cell-based or functional assay
[4] = biological target: Haemonchus galactose-containing glycoprotein complex (H-gal-GP) (Haemonchus contortus); assay: cell-based or functional assay
[5] = biological target: Ostertagia circumcincta galactose containing glycoprotein complex (Oc-gal-GP) (Ostertagia circumcincta); assay: cell-based or functional assay
[6] = system: extracts of adult T.vitrinus; assay: Proteolytic activity of worm extracts in the presence of pepstatin; format: biochemical
Text: Proteolytic activity in extracts of adult T.vitrinus was reduced by 40% in the presence of pepstatin. […] These observations indicate that T.vitrinus also contains aspartyl proteinase activity similar to Haemonchus and Ostertagia spp.

[7] = first analysis, 0.1M phosphate buffer
[8] = second analysis, same batch of H-gal-GP

Molecule | percent activity remaining in the presence of inhibitor (Oc-gal-GP) [%] | percent activity remaining in the presence of inhibitor (H-gal-GP [1]) [%] | percent activity remaining in the presence of inhibitor (Oo-gal-GP) [%] | % activity remaining (H-gal-GP [2]; [7]) [%] | % activity remaining (H-gal-GP [2]; [8]) [%] | further results
c1cnc2c(c1)ccc1cccnc12 [1, 10 Phenanthroline, 1,10 phenanthroline] | 94 | 97 | 99 | 26 | 23 | –
N[C@@H](CCC(=O)N[C@@H](CS)C(=O)NCC(=O)O)C(=O)O [Glutathione, reduced glutathione] | – | – | – | 87 | 85 | –
O[C@H](CS)[C@H](O)CS (racemic) [Dithiothreitol, dithiothreitol] | – | – | – | 48 | 44 | –
CC(C)C[C@H](NC(=O)[C@H]1O[C@@H]1C(=O)O)C(=O)NCCCCN=C(N)N [E64] | 101 | 87.8 | 101 | – | – | –
O=C([O-])c1cc[c]([Hg][OH])cc1 [4-hydroxymercuribenzoate] | – | – | – | 88 | 91 | –
N[C@@H](CS)C(=O)O [Cysteine, L-cysteine] | – | – | – | – | 0 | –
O=S(=O)(F)Cc1ccccc1 [PMSF] | 104 | 100 | 84 | – | – | –
O=C(O)CN(CCN(CC(=O)O)CC(=O)O)CC(=O)O [EDTA] | – | 97.8 | – | 25 | 10 | –
pepstatin (peptide) | – | – | – | – | – | percent activity remaining in the presence of inhibitor [3]: 0%; % activity remaining (azocasein proteolysis at pH7) [4]: 75% and 85%; percent activity remaining in the presence of inhibitor [4]: 8.5%; percent activity remaining in the presence of inhibitor [5]: 23%
CCN1C(=O)C=CC1=O [N-ethylmaleimide] | – | – | – | 74 | 77 | –
CC(C)CC(=O)N[C@H](C(=O)N[C@H](C(=O)N[C@@H](CC(C)C)[C@@H](O)CC(=O)N[C@@H](C)C(=O)N[C@@H](CC(C)C)[C@@H](O)CC(=O)O)C(C)C)C(C)C [Pepstatin, pepstatin] (Isovaleryl-VV[Sta]A[Sta]-OH) | 23 | 8.5 | 0 | 75 | 85 | Proteolytic activity reduced [6]: 40%
Serum of control lamb (injected with adjuvant only) (antibody) | – | – | – | – | – | % Inhibition of Proteolysis (Assay 1) [4]: 0%; % Inhibition of Proteolysis (Assay 2) [4]: 2%
